# Data from article PMC10772347 (Cell Reports Medicine, 2023).
# Experiments:
# NEK7 [1] = biological target: NEK7 (Homo sapiens, UniProt Q8TDX7); experiment: DARTS; format: cell-based
# NEK7 [2] = biological target: NEK7 (Mus musculus, UniProt Q9ES74); experiment: CETSA in BMDMs and DARTS in BMDM lysate; format: cell-based
# Chain of NEK7 (Mus musculus, UniProt Q9ES74) (Q9ES74 whole entry): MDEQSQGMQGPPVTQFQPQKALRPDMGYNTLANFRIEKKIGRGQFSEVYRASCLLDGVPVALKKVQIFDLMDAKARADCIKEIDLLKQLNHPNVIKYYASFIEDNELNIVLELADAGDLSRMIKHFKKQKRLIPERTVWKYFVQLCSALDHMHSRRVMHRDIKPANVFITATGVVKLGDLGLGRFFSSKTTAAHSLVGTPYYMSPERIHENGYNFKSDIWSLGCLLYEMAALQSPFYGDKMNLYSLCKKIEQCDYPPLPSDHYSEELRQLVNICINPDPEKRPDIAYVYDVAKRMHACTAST
# Chain of NEK7 (Homo sapiens, UniProt Q8TDX7) (Q8TDX7 whole entry, looked up): as the sequence (Q9ES74 whole entry) above, with T14P, S52A, D150E, I273M, I285V, A286T, T302S counted along it
compound,measurement,setting,value
"CN1CCN(c2ccc(C(=O)Nc3n[nH]c4ccc(Cc5cc(F)cc(F)c5)cc34)c(NC3CCOCC3)c2)CC1 [ENB, entrectinib]",DARTS (pronase) in lysate of HEK293T cells overexpressing WT or mutant NEK7 (200),NEK7 [1],"R121A, but not I40A mutation, abolished NEK7 binding to ENB (Figure 4D), suggesting that ENB binds to R121 of NEK7"
same,CETSA in BMDMs and DARTS in BMDM lysate (200 uM ENB),NEK7 [2],ENB significantly enhanced the thermal stability of NEK7 even at higher temperatures compared with the DMSO-treated group
